The values that follow come from publication PMC7114339 (Antiviral Research, 2020).

Entries after “also recorded” stand apart in the source; their conditions may differ.

For one data set, the system named is tumor growth. The following applies: xenograft mouse model ref Wolfe et al., 2014; cited from earlier work.
For data set [1] the following is noted: 2014, cited from earlier work.
Data set [2] has as its system persistently HEV-infected A549 cells. Nature of the data set: Cell viability of persistently HEV-infected A549 cells. The following applies: 2 nM, 72 h.
The subject of data set [3] is HCoV-229E. Nature of the data set: microbe, parasite or virus in culture. The note with it: Human coronavirus 229E, MRC5. The format is cell-based.
The subject of the next data set is LASV. Nature of the data set: cells. The format is cell-based.
The test system of another data set is CCHFV. Nature of the data set: cells. The format is cell-based.
For the next data set, the system named is ZIKV. Nature of the data set: Antiviral activity in ZIKV-infected A549 cells. It counts as cell-based. The following applies: ZIKV RNA, MOI 0.1, 24 hpi.
Data set [4] deals with HCoV-229E. It counts as cell-based.
The next data set deals with HEV. It counts as cell-based.
The subject of another data set is 5′-UTR of HCoV-229E. The format is cell-based.
Another data set deals with 5′-UTR of MERS-CoV. It counts as cell-based.
A further data set concerns 5′-UTR of EBOV VP30 mRNA. The format is cell-based.
The next data set has as its system 5′-UTR of EBOV VP35. The format is cell-based.
Data set [5] has as its system 5′-terminal hairpin of VP35 (VP35-HP only). It counts as cell-based, EBOV.
The next data set has as its system VP35-HP+(AG)5. The format is cell-based, EBOV.
For the next data set, the system named is (AG)15 construct. Nature of the data set: cells. It counts as cell-based. The following applies: read-out: inhibited translation.
The test system of another data set is (AC)15 sequence. It counts as cell-based.
In the next data set the test system is 5′-UTR of HEV (HEVgt3c). It counts as cell-based. The note with it: 10 nM.
In data set [6] the test system is HEVgt3c-G4C and HEVgt3c-G4CC6A. The format is cell-based, HEV.
Another data set has as its system HEVgt3c-Purine 5′-UTR. It counts as cell-based, HEV.
The test system of a further data set is A549 cells. The following applies: human.
Another data set is described as follows: in vitro. The note with it: human.
Data set [7] is described as follows: Cell toxicity in murine hepatocytes. The following applies: mouse, murine hepatocytes (mock infected).

Turning to CR-31-B, the cytotoxic effects result in the data set on MRC-5 cells is recorded as “no major cytotoxic effects”. The tumor growth result in the data set with tumor growth is listed as “reduced tumor growth efficiently”. Further, in [1] (mice ref Wolfe et al.), the “body weight or the number of blood cells” value is reported as “did not change” and the “toxicity in the gastrointestinal tract” value is “no toxicity could be observed”. Also, the “serum levels of aminotransferases (ALT and AST), albumin, total bilirubin, creatinine” value in data set [1] (two weeks after cessation of treatment ref Wolfe et al.) is “not significantly changed”. The cytotoxicity result in [2] is recorded as “not cytotoxic”.

By EC50 is commonly meant the midpoint of the concentration-response curve. Read a low EC50 as higher potency in that assay. `COC(=O)[C@H]1[C@@H](O)[C@@]2(O)c3c(OC)cc(O[C@@H]4O[C@@H]([C@H](O)CO)CO[C@H]4OC)cc3O[C@@]2(c2ccc(OC)cc2)[C@@H]1c1ccccc1` [Silvestrol]: the concentration for a half-maximal effect (EC50) in the data set on HCoV-229E [3] amounted to 3 nM; in the data set with LASV (Mus musculus, Hepatocyte), 50.7 nM; with CCHFV (Mus musculus, Hepatocyte), 28.5 nM; in the data set on ZIKV, 1.08 nM. Moreover, in the data set with LASV, the “virus titer drop, LASV” value was ~ 4 log. In addition, in the data set with CCHFV, the “virus titer drop, CCHFV” value amounted to 3 log. Also, the “virus titer in the supernatant reduced by” value with HCoV-229E [4] is recorded as “similar”. Besides, the infectious virus production entry in the data set with HCoV-229E [4] (100 nM) was “undetectable levels”. Moreover, in the data set on HEV, the “antiviral effect against HEV (extracellular viral RNA levels)” value is reported as “confirmed the antiviral activity; also recorded: reduce the levels of extracellular HEV RNA”. Also, the “sensitivity to translation inhibition” value is on record as “similarly sensitive” with 5′-UTR of HCoV-229E, “similarly sensitive” in the data set with 5′-UTR of MERS-CoV, “similarly sensitive” in the data set with 5′-UTR of EBOV VP30 mRNA and “sensitive” in the data set on 5′-UTR of EBOV VP35. Moreover, the “effect on reporter activity” value in [5] is “sufficient to mediate translation inhibition”; in the data set on VP35-HP+(AG)5 it was “slightly increased translation inhibition”. In addition, the inhibition at 0.01 µM in the data set on (AG)15 construct was approximately 55%. Moreover, in the data set with (AC)15 sequence, the “induction of luciferase activity” value is listed as 1.5 fold. Also, the luciferase activity result with 5′-UTR of HEV (HEVgt3c) is recorded as “reduced luciferase activity”. Also, the inhibitory effect entry in data set [6] was “gradual loss of the inhibitory effect”. Also, the sensitivity to treatment entry with HEVgt3c-Purine 5′-UTR is on record as “sensitive”. Further, the CC50 was 9.42 nM with A549 cells, more than 10000 nM in “in vitro” and more than 5000 nM in data set [7]. Also, in the data set with tumor growth, the tumor growth entry is “reduced tumor growth efficiently”. In [2], the cytotoxicity result is recorded as “some cytotoxicity”.
